In patent US9493506B2 (Enanta Pharmaceuticals, Inc., priority 2010, dated 2016):

How the values were obtained:
[1] = system: HCV replicon with a R155K mutation in a 1a-H77 background; test: transient replicon assay, R155K mutation in 1a-H77 background; format: cell-based, hepatitis C virus (genotype 1a-H77); details: Hepatitis C virus, read-out: EC50 in a transient replicon assay with a R155K mutation in a 1a-H77 background
Method in brief: (§1)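 Transient transfection of mutant replicon RNA (1a-H77 with NS2–NS5B, or 1b-N with NS3–NS5B plus E1202G/S2204I) by electroporation into IFN-cured Huh7 cells, plated at 7.5×10^3 cells per well in DMEM with 5% FBS. Serial compound dilutions added 4 h post-transfection (0.5% DMSO final).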

[2] = system: HCV replicon with a D168V mutation in a 1a-H77 background; test: transient replicon assay, D168V mutation in 1a-H77 background; format: cell-based, hepatitis C virus (genotype 1a-H77); details: Hepatitis C virus, read-out: EC50 in a transient replicon assay with a D168V mutation in a 1a-H77 background
Method in brief: as §1

dog PK experiment = details: in vivo; for bioavailability: dog PK experiment, 3 mg/kg, read-out: F value (bioavailability); for AUC: dog, dosed at 3 mg/kg
Source text: Those of ordinary skill in the art are aware of the biological assays utililized to test the compounds of the invention. Regarding bioavailability data (F values), a more thorough explanation can be found in Rowland, M and Tozer, T Clinical Pharmacokinetics: Concepts and Applications Lippincott, Williams & Wilkins 3rd ed. 1995, (specifically covered on page 43).

[3] = system: HCV replicon with a D168E mutation in a 1a-H77 background; test: transient replicon assay, D168E mutation in 1a-H77 background; format: cell-based, hepatitis C virus (genotype 1a-H77); details: Hepatitis C virus, read-out: EC50 in a transient replicon assay with a D168E mutation in a 1a-H77 background
Method in brief: as §1

Compound	EC50 [1]	EC50 [2]	bioavailability (dog PK experiment)	AUC (dog PK experiment)	EC50 [3]
Cc1cc(C(=O)N[C@H]2CCCCC/C=C\[C@@H]3C[C@@]3(C(=O)NS(=O)(=O)C3CC3)NC(=O)[C@@H]3C[C@@H](Oc4nc5ccccc5nc4C(C)(F)F)CN3C2=O)no1 [Example 2, N-((2R,6S,13aS,14aR,16aS,Z)-14a-(cyclopropylsulfonylcarbamoyl)-2-(3-(1,1-difluoroethyl)quinoxalin-2-yloxy)-5,16-dioxo-1,2,3,5,6,7,8,9,10,11,13a,14,14a,15,16,16a-hexadecahydrocyclopropa[e]pyrrolo[1,2-a][1,4]diazacyclopentadecin-6-yl)-5-methylisoxazole-3-carboxamide]	< 1 nM	25 to 50 nM	> 100%	4500 ng·h/mL	< 3 nM
Cc1cc(C(=O)N[C@H]2CCCCC/C=C\[C@@H]3C[C@@]3(C(=O)NS(=O)(=O)C3CC3)NC(=O)[C@@H]3C[C@@H](Oc4nc5ccccc5nc4C(F)(F)F)CN3C2=O)no1 [Example 10, N-((2R,6S,13aS,14aR,16aS,Z)-14a-(cyclopropylsulfonylcarbamoyl)-5,16-dioxo-2-(3-(trifluoromethyl)quinoxalin-2-yloxy)-1,2,3,5,6,7,8,9,10,11,13a,14,14a,15,16,16a-hexadecahydrocyclopropa[e]pyrrolo[1,2-a][1,4]diazacyclopentadecin-6-yl)-5-methylisoxazole-3-carboxamide]	< 1 nM	25 to 50 nM	> 100%	27000 ng·h/mL	< 3 nM
O=C(N[C@H]1CCCCC/C=C\[C@@H]2C[C@@]2(C(=O)NS(=O)(=O)C2CC2)NC(=O)[C@@H]2C[C@@H](Oc3nc4ccccc4nc3C(F)(F)F)CN2C1=O)c1ccon1 [Example 15, N-((2R,6S,13aS,14aR,16aS,Z)-14a-(cyclopropylsulfonylcarbamoyl)-5,16-dioxo-2-(3-(trifluoromethyl)quinoxalin-2-yloxy)-1,2,3,5,6,7,8,9,10,11,13a,14,14a,15,16,16a-hexadecahydrocyclopropa[e]pyrrolo[1,2-a][1,4]diazacyclopentadecin-6-yl)isoxazole-3-carboxamide]	–	–	> 100%	3300 ng·h/mL	–
Cc1onc(C(=O)N[C@H]2CCCCC/C=C\[C@@H]3C[C@@]3(C(=O)NS(=O)(=O)C3CC3)NC(=O)[C@@H]3C[C@@H](Oc4nc5ccccc5nc4C(F)(F)F)CN3C2=O)c1C [Example 16, N-((2R,6S,13aS,14aR,16aS,Z)-14a-(cyclopropylsulfonylcarbamoyl)-5,16-dioxo-2-(3-(trifluoromethyl)quinoxalin-2-yloxy)-1,2,3,5,6,7,8,9,10,11,13a,14,14a,15,16,16-hexadecahydrocyclopropa[e]pyrrolo[1,2-a][1,4]diazacyclopentadecin-6-yl)-4,5-dimethylisoxazole-3-carboxamide]	< 1 nM	< 25 nM	66%	2100 ng·h/mL	< 3 nM
Cc1cc(C(=O)N[C@H]2CCCCC/C=C\[C@@H]3C[C@@]3(C(=O)NS(=O)(=O)C3CC3)NC(=O)[C@@H]3C[C@@H](Oc4nc5cc(F)ccc5nc4C)CN3C2=O)no1 [Example 22, N-((2R,6S,13aS,14aR,16aS,Z)-14a-(cyclopropylsulfonylcarbamoyl)-2-(7-fluoro-3-methylquinoxalin-2-yloxy)-5,16-dioxo-1,2,3,5,6,7,8,9,10,11,13a,14,14a,15,16,16a-hexadecahydrocyclopropa[e]pyrrolo[1,2-a][1,4]diazacyclopentadecin-6-yl)-5-methylisoxazole-3-carboxamide]	1 to 10 nM	25 to 50 nM	> 100%	54000 ng·h/mL	3 to 20 nM
Cc1cc(C(=O)N[C@H]2CCCCC/C=C\[C@@H]3C[C@@]3(C(=O)NS(=O)(=O)C3(C)CC3)NC(=O)[C@@H]3C[C@@H](Oc4nc5cc(F)ccc5nc4C)CN3C2=O)no1 [Example 23, N-((2R,6S,13aS,14aR,16aS,Z)-2-(7-fluoro-3-methylquinoxalin-2-yloxy)-14a-(1-methylcyclopropylsulfonylcarbamoyl)-5,16-dioxo-1,2,3,5,6,7,8,9,10,11,13a,14,14a,15,16,16a-hexadecahydrocyclopropa[e]pyrrolo[1,2-a][1,4]diazacyclopentadecin-6-yl)-5-methylisoxazole-3-carboxamide]	1 to 10 nM	< 25 nM	86%	201000 ng·h/mL	3 to 20 nM
Cc1cc(C(=O)N[C@H]2CCCCC/C=C\[C@@H]3C[C@@]3(C(=O)NS(=O)(=O)C3CC3)NC(=O)[C@@H]3C[C@@H](Oc4nc5c(F)cccc5nc4C)CN3C2=O)no1 [Example 56, N-((2R,6S,13aS,14aR,16aS,Z)-14a-(cyclopropylsulfonylcarbamoyl)-2-(8-fluoro-3-methylquinoxalin-2-yloxy)-5,16-dioxo-1,2,3,5,6,7,8,9,10,11,13a,14,14a,15,16,16a-hexadecahydrocyclopropa[e]pyrrolo[1,2-a][1,4]diazacyclopentadecin-6-yl)-5-methylisoxazole-3-carboxamide]	1 to 10 nM	50 to 250 nM	> 100%	10800 ng·h/mL	20 to 50 nM
Cc1cc(C(=O)N[C@H]2CCCCC/C=C\[C@@H]3C[C@@]3(C(=O)NS(=O)(=O)C3(C)CC3)NC(=O)[C@@H]3C[C@@H](Oc4nc5cc(F)cc(Br)c5nc4C)CN3C2=O)no1 [Example 101, N-((2R,6S,13aS,14aR,16aS,Z)-2-(5-bromo-7-fluoro-3-methylquinoxalin-2-yloxy)-14a-(1-methylcyclopropylsulfonylcarbamoyl)-5,16-dioxo-1,2,3,5,6,7,8,9,10,11,13a,14,14a,15,16,16a-hexadecahydrocyclopropa[e]pyrrolo[1,2-a][1,4]diazacyclopentadecin-6-yl)-5-methylisoxazole-3-carboxamide]	< 1 nM	< 25 nM	> 100%	84000 ng·h/mL	3 to 20 nM
Cc1cc(C(=O)N[C@H]2CCCCC/C=C\[C@@H]3C[C@@]3(C(=O)NS(=O)(=O)C3CC3)NC(=O)[C@@H]3C[C@@H](Oc4nc5cc(F)ccc5nc4C(F)(F)F)CN3C2=O)no1 [Example 107, N-((2R,6S,13aS,14aR,16aS,Z)-14a-(cyclopropylsulfonylcarbamoyl)-2-(7-fluoro-3-(trifluoromethyl)quinoxalin-2-yloxy)-5,16-dioxo-1,2,3,5,6,7,8,9,10,11,13a,14,14a,15,16,16a-hexadecahydrocyclopropa[e]pyrrolo[1,2-a][1,4]diazacyclopentadecin-6-yl)-5-methylisoxazole-3-carboxamide]	< 1 nM	< 25 nM	74%	54000 ng·h/mL	< 3 nM
Cc1cc(C(=O)N[C@H]2CCCCC/C=C\[C@@H]3C[C@@]3(C(=O)NS(=O)(=O)C3(C)CC3)NC(=O)[C@@H]3C[C@@H](Oc4nc5cc(F)ccc5nc4C(F)(F)F)CN3C2=O)no1 [Example 111, N-((2R,6S,13aS,14aR,16aS,Z)-2-(7-fluoro-3-(trifluoromethyl)quinoxalin-2-yloxy)-14a-(1-methylcyclopropylsulfonylcarbamoyl)-5,16-dioxo-1,2,3,5,6,7,8,9,10,11,13a,14,14a,15,16,16a-hexadecahydrocyclopropa[e]pyrrolo[1,2-a][1,4]diazacyclopentadecin-6-yl)-5-methylisoxazole-3-carboxamide]	< 1 nM	< 25 nM	88%	141000 ng·h/mL	< 3 nM
Cc1cc(C(=O)N[C@H]2CCCCC/C=C\[C@@H]3C[C@@]3(C(=O)NS(=O)(=O)C3CC3)NC(=O)[C@@H]3C[C@@H](Oc4nc5cc(F)ccc5nc4C(C)(F)F)CN3C2=O)no1 [Example 117, N-((2R,6S,13aS,14aR,16aS,Z)-14a-(cyclopropylsulfonylcarbamoyl)-2-(3-(1,1-difluoroethyl)-7-fluoroquinoxalin-2-yloxy)-5,16-dioxo-1,2,3,5,6,7,8,9,10,11,13a,14,14a,15,16,16a-hexadecahydrocyclopropa[e]pyrrolo[1,2-a][1,4]diazacyclopentadecin-6-yl)-5-methylisoxazole-3-carboxamide]	< 1 nM	< 25 nM	63%	63000 ng·h/mL	< 3 nM
CCc1nc2cccc(F)c2nc1O[C@@H]1C[C@H]2C(=O)N[C@]3(C(=O)NS(=O)(=O)C4CC4)C[C@H]3/C=C\CCCCC[C@H](NC(=O)c3noc(C)c3C)C(=O)N2C1 [Example 163, N-((2R,6S,13aS,14aR,16aS,Z)-14a-(cyclopropylsulfonylcarbamoyl)-2-(3-ethyl-8-fluoroquinoxalin-2-yloxy)-5,16-dioxo-1,2,3,5,6,7,8,9,10,11,13a,14,14a,15,16,16a-hexadecahydrocyclopropa[e]pyrrolo[1,2-a][1,4]diazacyclopentadecin-6-yl)-4,5-dimethylisoxazole isoxazole-3-carboxamide]	< 1 nM	25 to 50 nM	–	–	< 3 nM
